Values joined by “and” are separate entries in the source; they are usually repeats but may differ in a detail not shown here. Identical values can stand only once.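 96-well plates; 48 h exposure; 5 concentrations. Endpoints by linear interpolation between flanking doses. Not reached: highest tested concentration assigned. GI50 = concentration required for 50% inhibition of growth. TGI is the concentration that stops growth completely.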
Experiments:
Assay in all cases: NCI-60 cell line screen, 48 h
MALME-3M melanoma = tested on: MALME-3M melanoma
NCI-H522 lung = tested on: NCI-H522 lung
IGROV1 ovarian = tested on: IGROV1 ovarian
SR leukemia = tested on: SR leukemia
SNB-78 CNS = tested on: SNB-78 CNS
SK-MEL-28 melanoma = tested on: SK-MEL-28 melanoma
A549 NSCLC = tested on: A549 NSCLC
OVCAR-8 ovarian = tested on: OVCAR-8 ovarian
SK-MEL-5 melanoma = tested on: SK-MEL-5 melanoma
MDA-N = tested on: MDA-N

Row | Compound | GI50 (MALME-3M melanoma) | TGI (MALME-3M melanoma) | GI50 (NCI-H522 lung) | TGI (NCI-H522 lung) | GI50 (IGROV1 ovarian) | TGI (IGROV1 ovarian) | GI50 (SR leukemia) | TGI (SR leukemia) | GI50 (SNB-78 CNS) | TGI (SNB-78 CNS) | GI50 (SK-MEL-28 melanoma) | TGI (SK-MEL-28 melanoma) | TGI (A549 NSCLC) | TGI (OVCAR-8 ovarian) | TGI (SK-MEL-5 melanoma) | GI50 (A549 NSCLC) | TGI (MDA-N) | GI50 (OVCAR-8 ovarian) | GI50 (SK-MEL-5 melanoma) | GI50 (MDA-N)
1 | C1C[S][Ge]2([S]CCO1)[S]CCOCC[S]2 | > 100 µM | > 100 µM | > 100 µM | > 100 µM | > 100 µM | > 100 µM | > 100 µM | > 100 µM | > 100 µM | > 100 µM | > 100 µM | > 100 µM | – | – | – | – | – | – | – | –
2 | CC(C)(C)CC(C)(C)c1cc2c(O)c(c1)Cc1cc(C(C)(C)CC(C)(C)C)cc(c1O)Cc1cc(C(C)(C)CC(C)(C)C)cc(c1O)Cc1cc(C(C)(C)CC(C)(C)C)cc(c1O)Cc1cc(C(C)(C)CC(C)(C)C)cc(c1O)Cc1cc(C(C)(C)CC(C)(C)C)cc(c1O)C2 | – | > 100 µM | – | > 100 µM | – | > 100 µM | – | – | – | > 100 µM | – | > 100 µM | > 100 µM | > 100 µM | > 100 µM | – | – | – | – | –
3 | CN(N=O)C(=O)N[C@@H](C=O)[C@@H](O)[C@H](O)[C@H](O)CO | > 750 µM | 657 µM and > 750 µM | > 750 µM | 646 µM and > 750 µM | > 750 µM | > 750 µM | – | > 750 µM | – | 608 µM | > 750 µM | > 750 µM | > 750 µM | > 750 µM | 631 µM and > 750 µM | > 750 µM | > 750 µM | > 750 µM | > 750 µM | –
4 | O=c1cccccc1NCCCCCCNc1cccccc1=O | – | > 100 µM | – | > 100 µM | – | > 100 µM | – | – | – | > 100 µM | – | > 100 µM | > 100 µM | > 100 µM | > 100 µM | – | – | – | – | –
5 | O=C1N(c2ccccc2)C(=O)C2(SC=NN2Cc2ccccc2)N1c1ccccc1 (centres undefined) | – | > 100 µM | – | > 100 µM | – | > 100 µM | – | > 100 µM | – | > 100 µM | – | > 100 µM | > 100 µM | > 100 µM | > 100 µM | – | – | – | – | –
6 | O=C([O][Hg][CH2]C1COC([CH2][Hg][O]C(=O)c2ccccc2)CO1)c1ccccc1 (centres undefined) | 2.06 µM and 1.7 µM | 3.81 µM and 3.23 µM | 1.47 µM and 1.14 µM | 3.78 µM and 4.64 µM | 8.71 µM | 17.2 µM | 2.83 µM and 1.65 µM | > 22.6 µM | 12.2 µM | 32.6 µM | 15.9 µM and 1.75 µM | 29.5 µM and 3.19 µM | 37.6 µM and 33.8 µM | 25.4 µM and 4.42 µM | 28.6 µM and 10.7 µM | 19.3 µM and 16.4 µM | 25.5 µM and 11.7 µM | 10.7 µM and 1.92 µM | 15.1 µM and 2.85 µM | 12.5 µM and 3 µM
7 | CCOC(=O)C1=C(O)CSC1=Nc1ccccc1 | – | > 100 µM | – | > 100 µM | – | > 100 µM | – | > 100 µM | – | > 100 µM | – | > 100 µM | > 100 µM | > 100 µM | – | – | – | – | – | –
8 | CC/C(=C(/CC)c1ccc([O-])cc1)c1ccc([O-])cc1.CC/C(=C(\CC)c1ccc([O-])cc1)c1ccc([O-])cc1.O=C([CH-]C(=O)c1ccccc1)c1ccccc1.O=C([CH-]C(=O)c1ccccc1)c1ccccc1.O=C([CH-]C(=O)c1ccccc1)c1ccccc1.O=C([CH-]C(=O)c1ccccc1)c1ccccc1.[Ti+4].[Ti+4] | 30.9 µM | > 100 µM | – | – | 41.9 µM | > 100 µM | 58.5 µM | > 100 µM | 72.4 µM | > 100 µM | 39.5 µM | > 100 µM | 47.9 µM | 50.1 µM | – | 18.9 µM | – | 20.7 µM | – | –
9 | O=C1OCCC1C(O)C1c2ccccc2-c2ccccc21 (centres undefined) | – | > 100 µM | – | > 100 µM | – | > 100 µM | – | > 100 µM | – | > 100 µM | – | > 100 µM | > 100 µM | > 100 µM | – | – | – | – | – | –
